Where two headings read alike, the source gives them in different places. Marks after values point to notes of the source that are not given here. One block for each compound: values may come before it.
How the values were obtained:
[1] = Perpetrator drug plasma Cmax in clinical interaction studies with metformin; type: in vivo, human; details: f u × C max
[2] = read-out: [C max] mean steady-state total plasma concentration, cited from earlier work
[3] = cited from earlier work
Caco‐2 cell monolayers = experiment: Metformin apparent permeability across polarised Caco-2 cell monolayers with and without inhibitors; type: in vitro ADME; details: therapeutic intestinal concentrations of inhibitor
Description: (§1) Caco‐2 cells between passage numbers 50–60 were used for experiments. Cells were seeded in cell culture medium (consisting of DMEM supplemented with 10% (w/v) fetal bovine serum, 2 mmol/L L‐glutamine, 1% (v/v) nonessential amino acids, 50 U/mL penicillin and 50 μg/mL streptomycin) onto Millicell‐96 multiwell insert plates at 1 × 10^5 cells/cm^2 and cultured at 37°C in an atmosphere of 5% CO2 with a relative humidity of 95 %. Media was changed every two or three days and plates were used for transport studies on day 20 postseeding. Cell monolayers were washed twice with prewarmed (37°C) transport buffer (HBSS containing 25 mmol/L HEPES and 4.45 mmol/L glucose, pH 7.4) for basolateral compartments and prewarmed MES‐transport buffer (HBSS containing 10 mmol/L MES and 4.45 mmol/L glucose, pH 6.5) for apical compartments. […] Transport buffer or MES‐transport buffer containing DMSO or test inhibitor was added to the corresponding receiver compartments. Donor and receiver solutions contained a final DMSO concentration of ≤1 % (v/v). […] The amount of lucifer yellow appearing in the receiver compartments was quantified on a fluorescence plate reader and used to calculate permeation across the cell monolayer.

[4] = molecular target: T1, human organic cation transporter (OCT) 1 (SLC22A1) (Homo sapiens, UniProt O15245); experiment: cell-based
T1 sequence (O15245 1-554): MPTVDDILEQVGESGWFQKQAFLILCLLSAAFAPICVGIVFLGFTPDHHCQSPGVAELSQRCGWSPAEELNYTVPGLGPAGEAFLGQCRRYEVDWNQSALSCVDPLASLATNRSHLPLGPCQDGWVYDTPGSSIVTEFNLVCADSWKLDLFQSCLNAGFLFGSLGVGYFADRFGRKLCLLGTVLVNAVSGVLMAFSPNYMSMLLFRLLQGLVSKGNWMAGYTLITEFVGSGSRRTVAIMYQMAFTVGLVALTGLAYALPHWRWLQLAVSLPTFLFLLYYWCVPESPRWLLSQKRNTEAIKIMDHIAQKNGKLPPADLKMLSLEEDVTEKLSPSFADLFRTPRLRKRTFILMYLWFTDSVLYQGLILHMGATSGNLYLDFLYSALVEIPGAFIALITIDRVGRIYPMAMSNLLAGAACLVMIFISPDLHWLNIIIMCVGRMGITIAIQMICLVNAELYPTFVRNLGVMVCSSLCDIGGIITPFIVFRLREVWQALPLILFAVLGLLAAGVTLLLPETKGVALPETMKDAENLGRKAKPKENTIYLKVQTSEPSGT

[5] = molecular target: T2, multidrug and toxin extrusion protein (MATE) 1 (SLC47A1) (Homo sapiens, UniProt Q96FL8); parameters: method as in Kusuhara et al. 2011; Ito et al. 2012; Müller et al. 2015; details: ref Kusuhara et al. 2011; Ito et al. 2012; Müller et al. 2015; cited from earlier work
T2 sequence (Q96FL8 1-570): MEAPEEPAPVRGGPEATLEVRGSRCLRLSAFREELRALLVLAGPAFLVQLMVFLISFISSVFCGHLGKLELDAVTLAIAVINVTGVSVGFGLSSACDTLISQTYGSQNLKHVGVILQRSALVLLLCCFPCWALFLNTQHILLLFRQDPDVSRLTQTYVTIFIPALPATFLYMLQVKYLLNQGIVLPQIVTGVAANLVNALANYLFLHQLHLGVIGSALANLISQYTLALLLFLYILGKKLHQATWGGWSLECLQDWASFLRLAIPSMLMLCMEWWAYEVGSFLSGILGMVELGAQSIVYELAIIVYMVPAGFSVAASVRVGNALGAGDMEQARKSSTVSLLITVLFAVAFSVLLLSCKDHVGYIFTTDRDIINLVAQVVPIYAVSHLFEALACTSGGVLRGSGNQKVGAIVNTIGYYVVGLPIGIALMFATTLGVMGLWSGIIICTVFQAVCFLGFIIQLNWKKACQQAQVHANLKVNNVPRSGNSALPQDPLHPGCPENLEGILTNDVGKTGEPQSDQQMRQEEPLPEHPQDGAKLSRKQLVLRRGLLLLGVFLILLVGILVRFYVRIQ

[6] = cited from earlier work; for increase in the plasma exposure (AUC) of metformin in clinical DDIs: ref Somogyi et al. 1987, Wang et al. 2008, Grün et al. 2013, Müller et al. 2015, Kusuhara et al. 2011
[7] = molecular target: T2, multidrug and toxin extrusion protein (MATE) 1 (SLC47A1); experiment: In vitro SLC transporter inhibition: MATE1-mediated [14C]-metformin uptake; type: cell-based
MATE2‐K (SLC47A2) = MATE2‐K (SLC47A2) (Homo sapiens, UniProt Q86VL8); details: MATE2-K-mediated metformin uptake, 1.5 min, 37°C; ±SE from fitting
[8] = Metformin apparent permeability across polarised Caco-2 cell monolayers with and without inhibitors; type: in vitro ADME; details: human, Caco-2, pH 6.5
Description: as §1

Mate1 = system: Mate1; parameters: method as in Tsuda et al. 2009a; details: intravenous administration; ref Tsuda et al. 2009a; cited from earlier work
Oct1/2 = system: Oct1/2; parameters: method as in Higgins et al. 2012; details: oral administration; ref Higgins et al. 2012; cited from earlier work
[9] = oral metformin human mass balance, average; ref Pentikäinen et al. 1979; Tucker et al. 1981; Kusuhara et al. 2011; cited from earlier work
[10] = Metformin human mass balance and renal clearance; type: in vivo
[11] = molecular target: T2, multidrug and toxin extrusion protein (MATE) 1 (SLC47A1); details: MATE1-mediated metformin uptake, 1.5 min, 37°C; ±SE from fitting
[12] = first-listed (or only) clinical study

MATE2‐K (SLC47A2), sequence (Q86VL8 1-566 isoform Q86VL8-3): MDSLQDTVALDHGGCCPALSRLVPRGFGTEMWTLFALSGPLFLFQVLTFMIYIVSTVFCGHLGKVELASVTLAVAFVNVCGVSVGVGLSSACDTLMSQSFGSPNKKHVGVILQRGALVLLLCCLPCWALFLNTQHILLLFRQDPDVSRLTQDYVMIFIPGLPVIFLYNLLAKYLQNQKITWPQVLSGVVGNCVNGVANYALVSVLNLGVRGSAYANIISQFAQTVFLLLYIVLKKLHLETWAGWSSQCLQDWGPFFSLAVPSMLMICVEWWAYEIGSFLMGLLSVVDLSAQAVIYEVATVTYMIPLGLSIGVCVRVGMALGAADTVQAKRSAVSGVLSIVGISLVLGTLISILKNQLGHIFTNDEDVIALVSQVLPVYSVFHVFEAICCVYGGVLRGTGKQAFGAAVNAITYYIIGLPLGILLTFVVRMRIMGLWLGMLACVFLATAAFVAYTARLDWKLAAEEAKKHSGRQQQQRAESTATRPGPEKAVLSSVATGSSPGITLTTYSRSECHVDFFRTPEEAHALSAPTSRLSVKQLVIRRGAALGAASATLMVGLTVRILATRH

[C max free] [1, 12]: 7.68 µM
[C max free] ([1]; second-listed clinical study): 4.08 µM
effect on enhancing metformin absorptive permeability across Caco‐2 cells (Caco‐2 cell monolayers): absence of an effect
IC50 [4]: 275 ± 32.2 µM
SMILES: CN/C(=N/CCSCc1nc[nH]c1C)NC#N [Cimetidine, cimetidine]
Cmax ([2]; cimetidine 400 mg, first value, study with metformin 250 mg, ref Somogyi et al. (1987)): 9.6 µM
Cmax ([2]; cimetidine 400 mg, second value, study with metformin 500 mg, ref Wang et al. (2008)): 5.1 µM
f u (fraction unbound) ([3]; ref Somogyi and Gugler (1983)): 0.80 ^a
mode of inhibition of MATE1 [5]: competitive inhibitors
increase in the plasma exposure (AUC) of metformin in clinical DDIs [6]: < 2 fold

SMILES: CCc1nc(N)nc(N)c1-c1ccc(Cl)cc1 [Pyrimethamine, pyrimethamine]
[C max free] [1, 12]: 0.298 µM
Cmax ([2]; pyrimethamine 50 mg, study with metformin 250 mg, ref Kusuhara et al. (2011)): 2.29 µM
effect on enhancing metformin absorptive permeability across Caco‐2 cells (Caco‐2 cell monolayers): absence of an effect
IC50 [4]: 4.46 ± 0.77 µM
MATE1 K i ([7]; equates to IC50 (probe ≪≪ Km, assuming competitive inhibition)): 0.131 µM
IC50 (≅K i) values MATE1 ([7]; probe [14C]-metformin 100 μmol/L, 1.5 min, mean ± SD of three experiments): 0.131 ± 0.0401 µM
mode of inhibition of MATE1 [5]: competitive inhibitors
increase in the plasma exposure (AUC) of metformin in clinical DDIs [6]: < 2 fold

[C max free] [1, 12]: 7.84 µM
[C max free] ([1]; second-listed clinical study): 4.26 µM
effect on enhancing metformin absorptive permeability across Caco‐2 cells (Caco‐2 cell monolayers): absence of an effect
SMILES: COc1cc(Cc2cnc(N)nc2N)cc(OC)c1OC [Trimethoprim, trimethoprim]
f u (fraction unbound) ([3]; ref Bactrim and Daraprim drug labels (Drugs@FDA database)): 0.56
increase in the plasma exposure (AUC) of metformin in clinical DDIs [6]: < 2 fold

K m (MATE2‐K (SLC47A2)): 2.986 ± 0.817 mM
V max (MATE2‐K (SLC47A2)): 32147 ± 3401 pmol/min/mg protein
Papp A→B at 90 min ([8]; read-out: Papp A‐B (apical to basolateral)): ~0.5 ×10⁻⁶ cm/s
Papp B→A at 90 min ([8]; read-out: Papp B‐A (basolateral to apical)): ~0.5 ×10⁻⁶ cm/s
fraction excreted value, ƒe, renal active transport ([10]; derived from intravenous administration of metformin): 0.66
fraction excreted value, ƒe, renal active transport ([10]; derived from oral administration of metformin): 0.39
SMILES: CN(C)C(=N)N=C(N)N [metformin, Metformin]
increase in metformin AUC in Mate1(−/−) null mice compared with wildtype (Mate1): 4.2 fold
increase in metformin AUC in Oct1/2(−/−) mice (Oct1/2): 2.9 fold
share of the dose eliminated in urine [9]: 52%
K m [11]: 4.565 ± 0.903 mM
V max [11]: 141000 ± 12283 pmol/min/mg protein

SMILES: CNC(=C[N+](=O)[O-])NCCSCc1csc(CN(C)C)n1 [nizatidine]
effect on metformin AUC in clinical interaction study ([6]; ref Morrissey et al. 2016): did not increase metformin AUC

— PMC5625161 (Pharmacology Research & Perspectives, 2017)
